Test results from article PMC11434080, “Acetylation of Oleanolic Acid Dimers as a Method of Synthesis of Powerful Cytotoxic Agents” (Molecules, 2024).
“Also recorded” adds a separate entry of the source. Like-named read-outs stand apart in the source and are kept apart here.

Legend:
[1] = tested on: SKBR-3, SKOV-3, PC-3, and U-87 cancer cell lines; experiment: MTT assay, four cancer cell lines taken together; assay type: cell-based, human; settings: for Selectivity Index value: IC50 HDF / IC50 cancer cell line, across the four cancer lines; for IC50: MTT, across SKBR-3, SKOV-3, PC-3, U-87; for level of cytotoxic activity relative to oleanolic acid (1): four cancer cell lines, times more active than oleanolic acid (1)
Experimental: (§1) The cytotoxic activity of oleanolic acid (mother compound, 1, Figure 2) and its 14 derivatives (3a–3n, Figure 2) was tested in vitro using the standard MTT method based on viability assay, e.g., [44] against carcinoma cell lines: SKBR-3, SKOV-3, PC-3, U-87, and one normal cell line: HDF.
(§2) Human cancer cells: SKBR-3 and SKOV-3 were cultured in McCoy’s Modified Medium; PC-3 was cultured in an F-12K medium; U-87 was cultured in EMEM medium; HDF was cultured in Fibroblast Basal Medium. Each medium was supplemented with 10% fetal bovine serum, 1% L- glutamine, and 1% penicillin/streptomycin solution. The cell lines were kept in an incubator at 37 °C. All the cell lines and mediums were obtained from the American Type Culture Collection (ATCC) supplied by LGC-Standards (Lomianki, Poland).
(§3) The MTT assay was conducted as described earlier, e.g., [44]. In short, this method is based on the reaction between mitochondria enzymes (dehydrogenases) of tested cell lines and 3-(4,5-dimethylthiazol-2-yl)-2,5-diphenyltetrazolium bromide (MTT). The final product of this reaction gives violet formazan crystals. The number of live cells is proportional to the amount of formazan and is represented by the violet dye reagent. The details of the experiments are given in [44].

HDF = experiment: MTT assay, HDF normal cell line; assay type: cell-based; settings: Homo sapiens, value (SD)
Experimental: as §1, §2, §3

SKBR-3 = experiment: MTT assay, SKBR-3; assay type: cell-based, human; settings: for IC50: SKBR-3 human breast adenocarcinoma, value (SD); for SKBR-3 SI: Selectivity Index = IC50 HDF / IC50 SKBR-3
Experimental: as §1, §2, §3

U-87 = experiment: MTT assay, U-87; assay type: cell-based, human; settings: for U-87 SI: Selectivity Index = IC50 HDF / IC50 U-87; for IC50: U-87 MG, MTT assay, U-87 human glioblastoma, value (SD)
Experimental: as §1, §2, §3

PC-3 = experiment: MTT assay, PC-3; assay type: cell-based, human; settings: for IC50: value (SD); for B SI: Selectivity Index = IC50 HDF / IC50 of PC-3
Experimental: as §1, §2, §3

SKOV-3 = experiment: MTT assay, SKOV-3; assay type: cell-based, human; settings: for IC50: SKOV-3 human ovarian cystadenocarcinoma, value (SD); for SKOV-3 SI: Selectivity Index = IC50 HDF / IC50 SKOV-3
Experimental: as §1, §2, §3

DPPH antioxidant assay = settings: Figure 3
Text: The results of the antioxidant activity of oleanolic acid (1) and Acetylated Oleanolic Acid Dimers (AcOADs) 3a–3n evaluated with CUPRAC and DPPH assays are given in Figure 3. The results are presented as % inhibition of the copper(II) ions and Trolox equivalent (blue bars) calculated from the standard curve, presented in the Supplementary Materials (Supplementary Materials S02, Figure S1) and as % inhibition of the DPPH radical and Trolox equivalent (pink bars), calculated from the standard curve presented in the Supplementary Materials (Supplementary Materials S02, Figure S2).
The CUPRAC reagent (7.5 mM ethanolic 96% neocuproine solution, 10 mM CuCl2 × H2O solution, and an ammonium acetate buffer of pH 7.0) and DPPH reagent (2,2-diphenyl-1-picrylhydrazyl 0.2 mM solution) were applied.
The DPPH assay relies on the ability of an antioxidant to donate a hydrogen atom or an electron to the stable DPPH radical, resulting in its reduction and subsequent color change. In contrast, the CUPRAC method measures the reducing power of a sample by quantifying its ability to convert the Cu-neocuproine reagent complex into the Cu(I) form. The results are presented as % inhibition of the copper(II) ions and Trolox equivalent (blue bars) calculated from the standard curve (Supplementary Materails S02, Figure S1) and as % inhibition of the DPPH radical and Trolox equivalent (pink bars), calculated from the standard curve (Supplementary Materials S02, Figure S2). The details of the experiments are given in [46].

[2] = MTT assay, PC-3 human prostate carcinoma, read-out: B IC50 (SD)

| Compound | Selectivity Index value [1] | IC50 ([1]; Homo sapiens) | IC50 (HDF) | IC50 (SKBR-3; SK-BR-3, MTT assay) | SKBR-3 SI (SKBR-3) | U-87 SI (U-87) | IC50 (U-87) | IC50 (PC-3; [2]) | B SI (PC-3) | IC50 (SKOV-3; SK-OV-3, MTT assay) | SKOV-3 SI (SKOV-3) | level of cytotoxic activity relative to oleanolic acid (1) [1] | IC50 (HDF; HDF) | IC50 (SKBR-3; Homo sapiens, SK-BR-3, MTT assay) | IC50 (U-87; Homo sapiens) | IC50 (PC-3; Homo sapiens, PC-3, read-out: B IC50 (SD), MTT assay, PC-3 human prostate carcinoma) | IC50 (SKOV-3; Homo sapiens, SK-OV-3, MTT assay) | IC50 [1] | DPPH activity (in words) (DPPH antioxidant assay) |
| --- | --- | --- | --- | --- | --- | --- | --- | --- | --- | --- | --- | --- | --- | --- | --- | --- | --- | --- | --- |
| CC1(C)CCC2(C(=O)OCCCCCCCCCCCCOC(=O)C34CCC(C)(C)CC3C3=CCC5C6(C)CCC(O)C(C)(C)C6CCC5(C)C3(C)CC4)CCC3(C)C(=CCC4C5(C)CCC(O)C(C)(C)C5CCC43C)C2C1 (centres unmarked) [Compound 2n, reference compound] | higher than 1.00 | – | – | – | – | – | – | – | – | – | – | – | – | – | – | – | – | – | – |
| CC(=O)OC1CCC2(C)C(CCC3(C)C2CC=C2C4CC(C)(C)CCC4(C(=O)OCCCOC(=O)C45CCC(C)(C)CC4C4=CCC6C7(C)CCC(OC(C)=O)C(C)(C)C7CCC6(C)C4(C)CC5)CCC23C)C1(C)C (centres unmarked) [Compound 3c] | lower than 1 | 2.5 to 4.5 µM | 3.07 µM | 3.82 µM | 0.80 | 0.99 | 3.11 µM | 2.94 µM | 1.04 | 3.15 µM | 0.97 | – | – | – | – | – | – | – | – |
| CC(=O)OC1CCC2(C)C(CCC3(C)C2CC=C2C4CC(C)(C)CCC4(C(=O)OCCCCOC(=O)C45CCC(C)(C)CC4C4=CCC6C7(C)CCC(OC(C)=O)C(C)(C)C7CCC6(C)C4(C)CC5)CCC23C)C1(C)C (centres unmarked) [Compound 3d] | higher than 1.00 | 2.5 to 4.5 µM | 4.78 µM | 3.03 µM | 1.58 | 1.35 | 3.54 µM | 3.59 µM | 1.33 | 2.89 µM | 1.65 | – | – | – | – | – | – | – | – |
| CC(=O)OC1CCC2(C)C(CCC3(C)C2CC=C2C4CC(C)(C)CCC4(C(=O)OCC=CCOC(=O)C45CCC(C)(C)CC4C4=CCC6C7(C)CCC(OC(C)=O)C(C)(C)C7CCC6(C)C4(C)CC5)CCC23C)C1(C)C (centres unmarked) [Compound 3f] | about 0.5 | 4.65 to 7.06 µM | – | – | 0.57 | 0.59 | – | – | 0.60 | – | 0.58 | approximately 3 times | 4.02 µM | 7.06 µM | 6.8 µM | 6.7 µM | 6.92 µM | – | – |
| CC(=O)OC1CCC2(C)C(CCC3(C)C2CC=C2C4CC(C)(C)CCC4(C(=O)OCCCCCOC(=O)C45CCC(C)(C)CC4C4=CCC6C7(C)CCC(OC(C)=O)C(C)(C)C7CCC6(C)C4(C)CC5)CCC23C)C1(C)C (centres unmarked) [Compound 3g] | higher than 1.00 | 2.5 to 4.5 µM | 5.66 µM | 4.65 µM | 1.22 | 1.38 | 4.09 µM | 4.1 µM | 1.38 | 4.23 µM | 1.34 | – | – | – | – | – | – | – | – |
| CC(=O)OC1CCC2(C)C(CCC3(C)C2CC=C2C4CC(C)(C)CCC4(C(=O)OCCCCCCOC(=O)C45CCC(C)(C)CC4C4=CCC6C7(C)CCC(OC(C)=O)C(C)(C)C7CCC6(C)C4(C)CC5)CCC23C)C1(C)C (centres unmarked) [Compound 3h] | higher than 1.00 | 4.65 to 7.06 µM | 6.85 µM | 5.25 µM | 1.30 | 1.47 | 4.65 µM | 5.13 µM | 1.33 | 4.72 µM | 1.45 | approximately 3 times | – | – | – | – | – | – | – |
| CC(=O)OC1CCC2(C)C(CCC3(C)C2CC=C2C4CC(C)(C)CCC4(C(=O)OCCCCCCCOC(=O)C45CCC(C)(C)CC4C4=CCC6C7(C)CCC(OC(C)=O)C(C)(C)C7CCC6(C)C4(C)CC5)CCC23C)C1(C)C (centres unmarked) [Compound 3i] | lower than 1 | ~2 µM | 1.85 µM | 2 µM | 0.92 | 0.93 | 1.98 µM | 1.9 µM | 0.97 | 1.93 µM | 0.96 | – | – | – | – | – | – | ≤ 2 µM | – |
| CC(=O)OC1CCC2(C)C(CCC3(C)C2CC=C2C4CC(C)(C)CCC4(C(=O)OCCCCCCCCOC(=O)C45CCC(C)(C)CC4C4=CCC6C7(C)CCC(OC(C)=O)C(C)(C)C7CCC6(C)C4(C)CC5)CCC23C)C1(C)C (centres unmarked) [Compound 3j] | – | 2.5 to 4.5 µM | 6.4 µM | 2.77 µM | 2.31 | 2.32 | 2.76 µM | 2.72 µM | 2.32 | 2.81 µM | 2.28 | – | – | – | – | – | – | – | higher antioxidant activity than OA |
| CC(=O)OC1CCC2(C)C(CCC3(C)C2CC=C2C4CC(C)(C)CCC4(C(=O)OCCCCCCCCCOC(=O)C45CCC(C)(C)CC4C4=CCC6C7(C)CCC(OC(C)=O)C(C)(C)C7CCC6(C)C4(C)CC5)CCC23C)C1(C)C (centres unmarked) [Compound 3k] | – | ~2 µM | 1.94 µM | 2.61 µM | 0.74 | 0.92 | 2.1 µM | 2.45 µM | 0.79 | 2.66 µM | 0.73 | – | – | – | – | – | – | – | higher antioxidant activity than OA |
| CC(=O)OC1CCC2(C)C(CCC3(C)C2CC=C2C4CC(C)(C)CCC4(C(=O)OCCCCCCCCCCOC(=O)C45CCC(C)(C)CC4C4=CCC6C7(C)CCC(OC(C)=O)C(C)(C)C7CCC6(C)C4(C)CC5)CCC23C)C1(C)C (centres unmarked) [Compound 3l] | – | 4.65 to 7.06 µM | 3.62 µM | 5.91 µM | 0.61 | 0.66 | 5.47 µM | 5.95 µM | 0.61 | 5.95 µM | 0.61 | approximately 3 times | – | – | – | – | – | – | higher antioxidant activity than OA; also recorded: highest activity; also recorded: extremely high DPPH activity |
